Results taken from patent publication US20110159515A1, “COMPOSITIONS AND METHODS FOR THE RAPID GROWTH AND DETECTION OF MICROORGANISMS” (SOLUS SCIENTIFIC SOLUTIONS LIMITED, priority 2008, published 2011).

Test system: S. aberdeen
Assay: Direct binding Salmonella assay (chemiluminescence immunosorbent)

CCCCCCCCCCCCOS(=O)(=O)[O-].[Na+] [SDS, sodium dodecyl sulphate]
signal, direct binding Salmonella assay (0.4% SDS, conjugate 1:100, 5 × 10^3 S. aberdeen, white plate, Lucy I): 25,175 ± 5,025
signal, direct binding Salmonella assay (0.4% SDS, conjugate 1:100, 5 × 10^4 S. aberdeen, white plate, Lucy I): 120,481 ± 16,389
signal, direct binding Salmonella assay (0.4% SDS, conjugate 1:100, 10^4 S. aberdeen, white plate, Lucy I): 29,127 ± 2,516
signal, direct binding Salmonella assay (0.4% SDS, conjugate 1:100, 10^5 S. aberdeen, white plate, Lucy I): 199,287 ± 67,462
signal, direct binding Salmonella assay (0.4% SDS, conjugate 1:100, 10^6 S. aberdeen, white plate, Lucy I): 398,979 ± 44,871
signal, direct binding Salmonella assay (0.4% SDS, conjugate 1:100, Peptone, white plate, Lucy I): 3,499 ± 569
signal, direct binding Salmonella assay (0.5% (w/v) SDS (first block), conjugate 1:100, 2.5 × 10^4 S. aberdeen, black and white plates): 1094 ± 156
signal, direct binding Salmonella assay (0.5% (w/v) SDS (first block), conjugate 1:100, 5 × 10^3 S. aberdeen, black and white plates): 623 ± 9
signal, direct binding Salmonella assay (0.5% (w/v) SDS (first block), conjugate 1:100, 5 × 10^4 S. aberdeen, black and white plates): 1,826 ± 166
signal, direct binding Salmonella assay (0.5% (w/v) SDS (first block), conjugate 1:100, 10^4 S. aberdeen, black and white plates): 796 ± 23
signal, direct binding Salmonella assay (0.5% (w/v) SDS (first block), conjugate 1:100, 10^5 S. aberdeen, black and white plates): 2,259 ± 103
signal, direct binding Salmonella assay (0.5% (w/v) SDS (first block), conjugate 1:100, 10^6 S. aberdeen, black and white plates): 16,959 ± 360^
signal, direct binding Salmonella assay (0.5% (w/v) SDS (first block), conjugate 1:100, Peptone, black and white plates): 705 ± 97
signal, direct binding Salmonella assay (0.5% (w/v) SDS, conjugate 1:50, Peptone, black and white plate, tube luminometer): 1198 ± 112
signal, direct binding Salmonella assay (0.5% (w/v) SDS, conjugate 1:50, S. aberdeen 2.5 × 10^4, black and white plate, tube luminometer): 6697 ± 1676
signal, direct binding Salmonella assay (0.5% (w/v) SDS, conjugate 1:50, S. aberdeen 5 × 10^3, black and white plate, tube luminometer): 1622 ± 21
signal, direct binding Salmonella assay (0.5% (w/v) SDS, conjugate 1:50, S. aberdeen 5 × 10^4, black and white plate, tube luminometer): 12,231 ± 723^
signal, direct binding Salmonella assay (0.5% (w/v) SDS, conjugate 1:50, S. aberdeen 10^4, black and white plate, tube luminometer): 3199 ± 735
signal, direct binding Salmonella assay (0.5% (w/v) SDS, conjugate 1:50, S. aberdeen 10^5, black and white plate, tube luminometer): 22,245 ± 529^
signal, direct binding Salmonella assay (0.5% (w/v) SDS, conjugate 1:50, S. aberdeen 10^6, black and white plate, tube luminometer): 59,070 ± 1216
signal, direct binding Salmonella assay (0.5% SDS (second block), conjugate 1:100, 2.5 × 10^4 S. aberdeen, black and white plates): 1,265 ± 46^
signal, direct binding Salmonella assay (0.5% SDS (second block), conjugate 1:100, 5 × 10^3 S. aberdeen, black and white plates): 748 ± 4
signal, direct binding Salmonella assay (0.5% SDS (second block), conjugate 1:100, 10^4 S. aberdeen, black and white plates): 908 ± 10
signal, direct binding Salmonella assay (0.5% SDS (second block), conjugate 1:100, 10^5 S. aberdeen, black and white plates): 3,947 ± 494
signal, direct binding Salmonella assay (0.5% SDS (second block), conjugate 1:100, 10^6 S. aberdeen, black and white plates): 26,621 ± 843^
signal, direct binding Salmonella assay (0.5% SDS (second block), conjugate 1:100, Peptone, black and white plates): 631 ± 38
signal, release and detection of core oligosaccharide (0.5% SDS, 10^1 bacteria (species not given)): 9918 relative light units
signal, release and detection of core oligosaccharide (0.5% SDS, 10^2 bacteria (species not given)): 9987 relative light units
signal, release and detection of core oligosaccharide (0.5% SDS, 10^3 bacteria (species not given)): 30399 relative light units
signal, release and detection of core oligosaccharide (0.5% SDS, 10^5 bacteria (species not given)): 959119 relative light units
signal, release and detection of core oligosaccharide (0.5% SDS, 10^6 bacteria (species not given)): 884352 relative light units
signal, direct binding Salmonella assay (0.5% SDS, conjugate 1:100, 2.5 × 10^4 S. aberdeen, white plate, Lucy I): 95,766 ± 6,186
signal, direct binding Salmonella assay (0.5% SDS, conjugate 1:100, 5 × 10^3 S. aberdeen, white plate, Lucy I): 24,984 ± 1,727
signal, direct binding Salmonella assay (0.5% SDS, conjugate 1:100, 5 × 10^4 S. aberdeen, white plate, Lucy I): 95,766 ± 6,186
signal, direct binding Salmonella assay (0.5% SDS, conjugate 1:100, 10^4 S. aberdeen, white plate, Lucy I): 46,273 ± 2,310
signal, direct binding Salmonella assay (0.5% SDS, conjugate 1:100, 10^5 S. aberdeen, white plate, Lucy I): 166,049 ± 288
signal, direct binding Salmonella assay (0.5% SDS, conjugate 1:100, 10^6 S. aberdeen, white plate, Lucy I): 374,007 ± 24,114
signal, direct binding Salmonella assay (0.5% SDS, conjugate 1:100, Peptone, black and white plate, tube luminometer): 974 ± 107
signal, direct binding Salmonella assay (0.5% SDS, conjugate 1:100, Peptone, white plate, Lucy I): 3,103 ± 267
signal, direct binding Salmonella assay (0.5% SDS, conjugate 1:100, S. aberdeen 2.5 × 10^4, black and white plate, tube luminometer): 3933 ± 379
signal, direct binding Salmonella assay (0.5% SDS, conjugate 1:100, S. aberdeen 5 × 10^3, black and white plate, tube luminometer): 1209 ± 66
signal, direct binding Salmonella assay (0.5% SDS, conjugate 1:100, S. aberdeen 5 × 10^4, black and white plate, tube luminometer): 8721 ± 63
signal, direct binding Salmonella assay (0.5% SDS, conjugate 1:100, S. aberdeen 10^4, black and white plate, tube luminometer): 1606 ± 243
signal, direct binding Salmonella assay (0.5% SDS, conjugate 1:100, S. aberdeen 10^5, black and white plate, tube luminometer): 15,009 ± 871^
signal, direct binding Salmonella assay (0.5% SDS, conjugate 1:100, S. aberdeen 10^6, black and white plate, tube luminometer): 40,190 ± 783^
signal, direct binding Salmonella assay (0.5% SDS, conjugate 1:150, Peptone, black and white plate, tube luminometer): 998 ± 103
signal, direct binding Salmonella assay (0.5% SDS, conjugate 1:150, S. aberdeen 2.5 × 10^4, black and white plate, tube luminometer): 1615 ± 132
signal, direct binding Salmonella assay (0.5% SDS, conjugate 1:150, S. aberdeen 5 × 10^3, black and white plate, tube luminometer): 975 ± 42
signal, direct binding Salmonella assay (0.5% SDS, conjugate 1:150, S. aberdeen 5 × 10^4, black and white plate, tube luminometer): 6576 ± 549
signal, direct binding Salmonella assay (0.5% SDS, conjugate 1:150, S. aberdeen 10^4, black and white plate, tube luminometer): 1415 ± 132
signal, direct binding Salmonella assay (0.5% SDS, conjugate 1:150, S. aberdeen 10^5, black and white plate, tube luminometer): 12,817 ± 975^
signal, direct binding Salmonella assay (0.5% SDS, conjugate 1:150, S. aberdeen 10^6, black and white plate, tube luminometer): 31,571 ± 2
